# Test results: patent publication US10604535B2, “Compounds, compositions and methods” (Denali Therapeutics Inc., priority 2016, dated 2020)
# Where two headings read alike, the source gives them in different places.
# How the values were obtained:
# [1] = system: human cryopreserved hepatocytes; test: Metabolic stability (hepatocytes); conditions: human cryopreserved hepatocytes
# Protocol: The metabolic stability of compounds was evaluated in human cryopreserved hepatocytes (BioreclamationlVT, NY, USA) in duplicate. Test articles (or controls) were added to a 24-well incubation plate (Becton Dickinson Labware, USA) containing 0.5×10^6 hepatocytes/mL in suspension. The plate was held at 37° C. and agitated with constant orbital shaking (orbital speed at 350 rpm). At each time point (0, 5, 10, 15, 20, 30, 45, 60, 90, 120, 150 and 180 min) a Tecan Evo robot aspirated 50 μL of the incubation mixture and 100 μL of acetonitrile containing internal standard to quench the reaction. […] Samples were centrifuged (3000 rpm for 10 minutes) and the plate sealed prior to injection onto an LC-MS/MS system.
# The appropriate parent/daughter ions were monitored for the test article and IS with the LC-MS/MS system. The intrinsic clearance (Clint; expressed μL/min/million cells) was determined from the first order elimination constant (k, min^−1) of test article decay and the volume of the incubation. […] The intrinsic organ CL was then converted to the hepatic clearance (CLhep) using the well-stirred model as shown below, where Qh is human hepatic blood flow.
# Hepatic clearance is expressed as mL/min/kg. The hepatic clearance relates to the flow of blood through the liver that is completely cleared of the compound.
# [2] = biological target: GST-hRIPK1 (8-327) (Homo sapiens (Human), UniProt Q13546); test: Fluorescent Polarization Binding (FP Binding) assay
# Sequence of GST-hRIPK1 (8-327) (Q13546 8-327): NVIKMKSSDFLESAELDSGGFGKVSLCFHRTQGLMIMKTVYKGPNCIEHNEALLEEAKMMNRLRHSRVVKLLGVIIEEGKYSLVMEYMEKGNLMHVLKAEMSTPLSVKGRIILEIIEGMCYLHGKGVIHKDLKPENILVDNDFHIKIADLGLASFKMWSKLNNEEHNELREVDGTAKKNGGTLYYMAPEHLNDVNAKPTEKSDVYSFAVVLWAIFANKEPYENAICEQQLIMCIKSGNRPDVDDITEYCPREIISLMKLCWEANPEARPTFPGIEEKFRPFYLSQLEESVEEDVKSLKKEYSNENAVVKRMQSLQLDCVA
# [3] = system: FADD-deficient Jurkat cells; test: Cellular necroptosis assay (human TNFα-induced necrosis, CellTiter-Glo); format: cell-based; conditions: 48 h, read-out: Cell IC50
# [4] = Homo sapiens, Jurkat, TNFα 10 ng/mL
Compound,Human hepatocyte CLhep Avg [1] [mL/min/kg],IC50 [2] [nM],"IC50 [3, 4] [nM]","IC50 ([3]; Homo sapiens, Jurkat) [nM]",IC50 ([3]; TNFα 10 ng/mL) [nM]
"CN1C(=O)[C@@H](NC(=O)c2cc(C3(c4ccccc4)CC3)on2)COc2cccnc21 [Example 77, (S)—N-(5-methyl-4-oxo-2,3,4,5-tetrahydropyrido[3,2-b][1,4]oxazepin-3-yl)-5-(1-phenylcyclopropyl)isoxazole-3-carboxamide]",19,–,–,–,–
"CN1C(=O)[C@@H](NC(=O)c2cc(Cc3ccccc3)on2)COc2cccnc21 [Example 142, (S)-5-Benzyl-N-(5-methyl-4-oxo-2,3,4,5-tetrahydropyrido[3,2-b][1,4]oxazepin-3-yl)isoxazole-3-carboxamide]",16,0.1 to 1000,–,–,–
"CN1C(=O)[C@@H](NC(=O)c2nnc(Cc3ccccc3)o2)CCc2cccnc21 [Example 148A, (S)-5-benzyl-N-(9-methyl-8-oxo-6,7,8,9-tetrahydro-5H-pyrido[2,3-b]azepin-7-yl)-1,3,4-oxadiazole-2-carboxamide]",12,0.1 to 1000,–,–,–
"CN1C(=O)[C@@H](NC(=O)c2nn(Cc3ccc(F)cc3)cc2F)[C@H]2C[C@H]2c2cccnc21 [Example 156B, 4-fluoro-1-(4-fluorobenzyl)-N-((1aS,2S,8bR)-4-methyl-3-oxo-1,1a,2,3,4,8b-hexahydrocyclopropa[d]pyrido[2,3-b]azepin-2-yl)-1H-pyrazole-3-carboxamide]",–,0.1 to 1000,0.1 to 1000,–,–
"CN1C(=O)[C@@H](NC(=O)c2nnc(Cc3ccccc3)o2)[C@H]2C[C@H]2c2cccnc21 [Example 157B, 5-benzyl-N-((1aS,2S,8bR)-4-methyl-3-oxo-1,1a,2,3,4,8b-hexahydrocyclopropa[d]pyrido[2,3-b]azepin-2-yl)-1,3,4-oxadiazole-2-carboxamide]",–,0.1 to 1000,0.1 to 1000,–,–
"CN1C(=O)[C@@H](NC(=O)c2cc(C#N)n(Cc3ccccc3)n2)COc2cccnc21 [Example 158, (S)-1-benzyl-5-cyano-N-(5-methyl-4-oxo-2,3,4,5-tetrahydropyrido[3,2-b][1,4]oxazepin-3-yl)-1H-pyrazole-3-carboxamide]",–,0.1 to 1000,–,0.1 to 1000,–
"CN1C(=O)[C@@H](NC(=O)c2nnc(Cc3ccccc3)o2)C2(CC2)Oc2cccnc21 [Example 160A, (S)-5-benzyl-N-(5′-methyl-4′-oxo-4′,5′-dihydro-3′H-spiro[cyclopropane-1,2′-pyrido[3,2-b][1,4]oxazepin]-3′-yl)-1,3,4-oxadiazole-2-carboxamide]",–,0.1 to 1000,0.1 to 1000,–,–
"CN1C(=O)[C@@H](NC(=O)c2nnc(Cc3cccc(C#N)c3)[nH]2)COc2cccnc21 [Example 161, (S)-5-(3-cyanobenzyl)-N-(5-methyl-4-oxo-2,3,4,5-tetrahydropyrido[3,2-b][1,4]oxazepin-3-yl)-4H-1,2,4-triazole-3-carboxamide]",0,0.1 to 1000,–,–,–
"CN1C(=O)[C@@H](NC(=O)c2nnc(Cc3cc(F)cc(C#N)c3)[nH]2)COc2cccnc21 [Example 162, (S)-5-(3-cyano-5-fluorobenzyl)-N-(5-methyl-4-oxo-2,3,4,5-tetrahydropyrido[3,2-b][1,4]oxazepin-3-yl)-4H-1,2,4-triazole-3-carboxamide]",–,0.1 to 1000,0.1 to 1000,–,–
"CN1C(=O)[C@@H](NC(=O)c2nnc(Cc3cccc(C#N)c3)[nH]2)COc2ccccc21 [Example 163, (S)-5-(3-cyanobenzyl)-N-(5-methyl-4-oxo-2,3,4,5-tetrahydrobenzo[b][1,4]oxazepin-3-yl)-4H-1,2,4-triazole-3-carboxamide]",0,0.1 to 1000,–,–,–
"CN1C(=O)[C@@H](NC(=O)c2ncc(Cc3cccc(C#N)c3)s2)COc2ccccc21 [Example 164, (S)-5-(3-cyanobenzyl)-N-(5-methyl-4-oxo-2,3,4,5-tetrahydrobenzo[b][1,4]oxazepin-3-yl)thiazole-2-carboxamide]",–,0.1 to 1000,0.1 to 1000,–,–
"CN1C(=O)[C@@H](NC(=O)c2cc(F)n(Cc3ccccc3)n2)COc2cccnc21 [Example 165, (S)-1-benzyl-5-fluoro-N-(5-methyl-4-oxo-2,3,4,5-tetrahydropyrido[3,2-b][1,4]oxazepin-3-yl)-1H-pyrazole-3-carboxamide]",–,0.1 to 1000,–,0.1 to 1000,–
"CN1C(=O)[C@@H](NC(=O)c2cc(F)n(Cc3ccc(F)cc3)n2)COc2cccnc21 [Example 166, (S)-5-fluoro-1-(4-fluorobenzyl)-N-(5-methyl-4-oxo-2,3,4,5-tetrahydropyrido[3,2-b][1,4]oxazepin-3-yl)-1H-pyrazole-3-carboxamide]",–,0.1 to 1000,0.1 to 1000,–,–
"CN1C(=O)[C@@H](NC(=O)c2nn(Cc3cncc(C#N)c3)cc2F)COc2cccnc21 [Example 168, (S)-1-((5-cyanopyridin-3-yl)methyl)-4-fluoro-N-(5-methyl-4-oxo-2,3,4,5-tetrahydropyrido[3,2-b][1,4]oxazepin-3-yl)-1H-pyrazole-3-carboxamide]",–,0.1 to 1000,0.1 to 1000,–,–
"N#Cc1cccc(Cn2cc(F)c(C(=O)N[C@@H]3C(=O)Nc4c(F)cc(F)cc4[C@@H]4C[C@H]34)n2)c1 [Example 170A, 1-(3-cyanobenzyl)-N-((1aS,2S,8bR)-5,7-difluoro-3-oxo-1,1a,2,3,4,8b-hexahydrobenzo[b]cyclopropa[d]azepin-2-yl)-4-fluoro-1H-pyrazole-3-carboxamide]",3.1,0.1 to 1000,–,–,–
"[2H]C([2H])([2H])N1C(=O)[C@@H](NC(=O)c2nnc(Cc3ccccc3)o2)[C@@H](C)Oc2cccnc21 [Example 174, 5-benzyl-N-((2R,3S)-2-methyl-5-trideuteriomethyl-4-oxo-2,3,4,5-tetrahydropyrido[3,2-b][1,4]oxazepin-3-yl)-1,3,4-oxadiazole-2-carboxamide]",–,0.1 to 1000,0.1 to 1000,–,–
"CN1C(=O)[C@@H](NC(=O)c2nn(Cc3ccccc3F)cc2F)CCc2nccnc21 [Example 178A, (S)-4-fluoro-1-(2-fluorobenzyl)-N-(5-methyl-6-oxo-6,7,8,9-tetrahydro-5H-pyrazino[2,3-b]azepin-7-yl)-1H-pyrazole-3-carboxamide]",–,0.1 to 1000,0.1 to 1000,–,–
"CN1C(=O)[C@@H](NC(=O)c2nn(Cc3ccccc3F)cc2F)[C@H]2C[C@H]2c2nccnc21 [Example 179A, 4-fluoro-1-(2-fluorobenzyl)-N-((7S,7aS,8aR)-5-methyl-6-oxo-5,6,7,7a,8,8a-hexahydrocyclopropa[d]pyrazino[2,3-b]azepin-7-yl)-1H-pyrazole-3-carboxamide]",–,0.1 to 1000,0.1 to 1000,–,–
"CN1C(=O)[C@@H](NC(=O)c2nnc(C3(c4ccccc4)CC3)o2)CCc2nccnc21 [Example 180A, (S)—N-(5-methyl-6-oxo-6,7,8,9-tetrahydro-5H-pyrazino[2,3-b]azepin-7-yl)-5-(1-phenylcyclopropyl)-1,3,4-oxadiazole-2-carboxamide]",–,0.1 to 1000,0.1 to 1000,–,–
"N#Cc1cccc(Cc2nnc(C(=O)N[C@@H]3C(=O)Nc4c(F)cc(F)cc4[C@@H]4C[C@H]34)[nH]2)c1 [Example 181B, 5-(3-cyanobenzyl)-N-((1aS,2S,8bR)-5,7-difluoro-3-oxo-1,1a,2,3,4,8b-hexahydrobenzo[b]cyclopropa[d]azepin-2-yl)-4H-1,2,4-triazole-3-carboxamide]",–,0.1 to 1000,0.1 to 1000,–,–
"Cc1ncccc1Cn1cc(F)c(C(=O)N[C@H]2CCc3nccnc3N(C)C2=O)n1 [Example 182B, (S)-4-fluoro-N-(5-methyl-6-oxo-6,7,8,9-tetrahydro-5H-pyrazino[2,3-b]azepin-7-yl)-1-((2-methylpyridin-3-yl)methyl)-1H-pyrazole-3-carboxamide]",–,0.1 to 1000,0.1 to 1000,–,–
"CN1C(=O)[C@@H](NC(=O)c2cc(Cc3ccccc3)on2)CCc2nccnc21 [Example 188, (S)-5-benzyl-N-(5-methyl-6-oxo-6,7,8,9-tetrahydro-5H-pyrazino[2,3-b]azepin-7-yl)isoxazole-3-carboxamide]",–,0.1 to 1000,0.1 to 1000,–,–
"C[C@H]1Oc2cccnc2N(C)C(=O)[C@H]1NC(=O)c1ncc(Cc2ccccc2)o1 [Example 192, 5-benzyl-N-((2R,3S)-2,5-dimethyl-4-oxo-2,3,4,5-tetrahydropyrido[3,2-b][1,4]oxazepin-3-yl)oxazole-2-carboxamide]",–,0.1 to 1000,0.1 to 1000,–,–
"Cc1nc2c(s1)CC[C@H](NC(=O)c1nnc(Cc3ccccc3)o1)C(=O)N2C [Example 200, (S)-5-benzyl-N-(2,4-dimethyl-5-oxo-5,6,7,8-tetrahydro-4H-thiazolo[4,5-b]azepin-6-yl)-1,3,4-oxadiazole-2-carboxamide]",–,0.1 to 1000,0.1 to 1000,–,–
"CN1C(=O)[C@@H](NC(=O)c2cn(Cc3ccccc3)nn2)COc2cccnc21 [Example 201, (S)-1-benzyl-N-(5-methyl-4-oxo-2,3,4,5-tetrahydropyrido[3,2-b][1,4]oxazepin-3-yl)-1H-1,2,3-triazole-4-carboxamide]",–,0.1 to 1000,0.1 to 1000,–,–
"C[C@H]1Oc2cccnc2N(C)C(=O)[C@H]1NC(=O)c1cn(Cc2ccccc2)nn1 [Example 203, 1-benzyl-N-((2R,3S)-2,5-dimethyl-4-oxo-2,3,4,5-tetrahydropyrido[3,2-b][1,4]oxazepin-3-yl)-1H-1,2,3-triazole-4-carboxamide]",–,0.1 to 1000,0.1 to 1000,–,–
"[2H]C([2H])([2H])N1C(=O)[C@@H](NC(=O)c2nn(Cc3ccccc3)cc2F)[C@H]2C[C@H]2c2cc(C#N)ccc21 [Example 206, 1-benzyl-N-((1aS,2S,8bR)-7-cyano-4-trideuteriomethyl-3-oxo-1,1a,2,3,4,8b-hexahydrobenzo[b]cyclopropa[d]azepin-2-yl)-4-fluoro-1H-pyrazole-3-carboxamide]",–,0.1 to 1000,0.1 to 1000,–,–
"(S)-1-(2-cyanobenzyl)-4-fluoro-N-(5-methyl-4-oxo-2,3,4,5-tetrahydropyrido[3,2-b][1,4]oxazepin-3-yl)-1H-pyrazole-3-carboxamide [Example 153]",–,0.1 to 1000,–,–,0.1 to 1000
